Measurements taken from the METLIN SMRT retention time set (Domingo-Almenara et al. 2019).

assay: gradient 5% acetonitrile 3 min, to 50% in 2 min, to 85% in 15 min, held 3 min, 100 µL/min; conditions: column: Zorbax Extend-C18 2.1 x 50 mm; eluents: water / acetonitrile, 0.1% formic acid
How it was run: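 Standards, all pure, were combined into mixtures of ~100 molecules and run at 100 μL/min on a Zorbax Extend-C18 column (2.1 × 50 mm, 1.8 μm) with water and acetonitrile, each containing 0.1% formic acid. A coupled quadrupole time-of-flight mass spectrometer operated in positive and negative ionization mode. Retention time values come from computationally picked adduct peaks, each inspected manually.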

RP-LC retention time | Compound
748 s | CCN1C(=O)c2cccnc2Sc2cc(C(=O)NCC(C)C)ccc21
700 s | O=C(CSc1ccc(N2CCCC(C(=O)NC3CC3)C2)nn1)Nc1ccc(Cl)cc1F (stereo unspecified)
886 s | COc1ccc(NC(=O)c2cc(C)n3nccc3n2)c(C)c1
588 s | COC(=O)C1=C(CN2CCCC2)NC(=O)NC1c1ccccc1C (stereo unspecified)
952 s | O=C(NC1CCCCC1)c1nnc(-c2ccc(S(=O)(=O)N3CCCC3)cc2)o1
785 s | CC(C)c1nc(CNC(=O)c2ccc(Cl)cc2)no1
783 s | O=C(O)C1CCCN(CCC=C(c2ccccc2)c2ccccc2)C1 (stereo unspecified)
700 s | COc1ccc(NC(=O)C2CCN(c3nnc4cccc(C)n34)CC2)cc1Cl
627 s | O=C(NCc1ccc(F)cc1F)C1CCN(c2cc(N3CCOCC3)ncn2)CC1
841 s | Cc1cccc(C2CCCN2C(=O)c2nc3nc(C)cc(C(F)F)n3n2)c1 (stereo unspecified)
806 s | CC(C)C(=O)Nc1ccc(-n2cnc(C(=O)NC3CCCCCC3)c2)nc1
665 s | COc1cc(NC(=O)N2CCN(Cc3ccccc3)c3ncccc32)cc(OC)c1OC
733 s | Cc1cc(-c2ccc(S(=O)(=O)N3CCC(C(=O)NCc4ccco4)CC3)o2)n[nH]1
736 s | CCCN(C)c1nccn2c(=O)n(CC(=O)Nc3ccc(C)cc3Cl)nc12
715 s | CC1CCN(c2ncc3c(n2)CCC(C(=O)NCc2ccc(N4CCOCC4)cc2)C3)CC1 (stereo unspecified)
597 s | Cc1occc1C(=O)N[C@@H]1CN(c2ncccn2)C[C@H]1CO
840 s | COc1ccccc1-c1noc(C2CCCN2C(=O)Nc2ccc(F)cc2F)n1 (stereo unspecified)
647 s | CC(=O)NC[C@H]1CN(c2ccc(-c3ccc(CNCc4cn[nH]n4)cc3)c(F)c2)C(=O)O1
645 s | N#Cc1cccc(-c2cn3c(n2)N(C(=O)c2ccco2)CCC3)c1
660 s | O=C(NCCc1ccco1)C1CCCN(C(=O)c2cccn2-c2cccnc2)C1 (stereo unspecified)
542 s | CN1CCN(CCCNC(=O)c2cc(-c3cccnc3)nc3ccc(Br)cc23)CC1
649 s | CCC1CN(C(=O)N2CCC(C(=O)NCCN3CCCC3)CC2)c2cc(C)ccc2O1 (stereo unspecified)
766 s | O=C(c1ccsc1)N1CCCC(OCc2nc(C3CC3)no2)C1 (stereo unspecified)

More lines, now with the values behind:

Compound | RP-LC retention time
O=C1CC(c2noc(-c3cc(F)ccc3F)n2)CN1c1ccc(F)c(Cl)c1 (stereo unspecified) | 1110 s
COc1ccc(NC(=O)N2CCC(c3nc(C(=O)N4CCOCC4)c(C)o3)CC2)c(C)c1 | 663 s
CC(C)C(=O)NCc1csc(C2CCCN(C(=O)C3CCC3)C2)n1 (stereo unspecified) | 694 s
Cc1ccc(S(=O)(=O)N2CCC3(CC2)NCCN=C3NCc2ccc(F)cc2)cc1 | 709 s
O=C(Nc1nccs1)C(=O)c1c(-c2ccccc2)cc2ccccn12 | 866 s
O=C(CN1CCc2ccccc2C1C(=O)N1CCCC1)Nc1ccc(Cl)cc1 (stereo unspecified) | 860 s
COc1ccc(-n2c(=O)n(C)c(=O)c3cc(C(=O)NCc4ccco4)cnc32)cc1 | 764 s
Cc1ccc(-c2csc(Nc3ccc(Br)cn3)n2)cc1 | 1250 s
CN1c2cc(F)ccc2C(=O)NC12CCN(C(=O)NCc1ccccc1)CC2 | 724 s
O=C(CSc1nnc(-c2ccccc2F)o1)N1CCCc2ccccc21 | 872 s
Cc1ccc(C)c(NC(=O)C2CCCN2S(=O)(=O)c2ccc3c(c2)CCCC(=O)N3)c1 (stereo unspecified) | 810 s
Cc1c(S(=O)(=O)NCC2CC2)c(C)n(C)c1-c1nnc(C2CCC2)o1 | 899 s
CCCN1C(=O)COc2ccc(-c3noc(-c4ccccc4F)n3)cc21 | 1160 s
Cc1ccccc1CN1CCC(CNS(=O)(=O)c2ccc3c(c2)CCCC(=O)N3)CC1 | 616 s
Cc1ccc(Nc2c(-c3ccc(N4CCOCC4)cc3)nc3ccc(Cl)cn23)cc1 | 777 s
COC(=O)c1cccc(C(=O)Nc2ccccc2)n1 | 800 s
CN(C)c1cccc(-c2nc(-c3cn(Cc4cccc(F)c4)nn3)no2)c1 | 677 s
Cc1oc(C2CCN(C(=O)Nc3ccc(F)cc3)CC2)nc1C(=O)N1CCCC1 | 752 s
COCc1cc2nn(CC(=O)Nc3cc(F)ccc3C)c(=O)n2c(-c2ccccc2)n1 | 853 s
COc1ccc(OC)c(NC(=O)c2[nH]c3cc(C)sc3c2CN(C)C)c1 | 692 s
COc1ccc(-c2nc3cc(C)ccn3c2NC(=O)c2cc(OC)c(OC)c(OC)c2)cc1 | 664 s
O=C(NCc1nnc(SC/C=C/c2ccccc2)o1)c1ccccc1 | 824 s

Compound | RP-LC retention time
Cc1ccc(-c2nc3nc(C)cc(C)n3c2Nc2ccc(Cl)cc2)cc1 | 786 s
CCc1nnc(-c2cc(NS(C)(=O)=O)c(C)s2)o1 | 747 s
O=C(Nc1ccccc1)N1CCCC1c1nncn1C1CCCC1 (stereo unspecified) | 622 s
Cc1ccccc1CNc1nnc(-c2nc(C3CC3)no2)c2ccccc12 | 936 s
Fc1ccc(C2Cn3cnc(-c4nc(-c5cccs5)no4)c3CO2)cc1 (stereo unspecified) | 1010 s
CCOC(=O)C(C)Sc1nnc(NC(=O)c2cccc([N+](=O)[O-])c2C)s1 (stereo unspecified) | 859 s
O=C(Nc1cccnc1)C1CCCN(S(=O)(=O)c2c[nH]c(C(=O)N3CCCC3)c2)C1 (stereo unspecified) | 594 s
O=C(O)c1cc(-c2ccc(Br)s2)nc2ccccc12 | 1110 s
CCC(C)C(NC(=O)c1cccc(C)c1)C(=O)Nc1nc2ccccc2[nH]1 (stereo unspecified) | 765 s
CC(=O)N1CCc2c(sc(NC(=O)C3(c4ccc(Cl)cc4)CCCC3)c2C#N)C1 | 946 s
O=C(CCn1c(N2CCCC2)nc2ccsc2c1=O)NCc1ccc(F)cc1F | 779 s
COC(=O)Nc1ccc(-c2nc(N3CCOCC3)c3cnn(C4CCN(C(=O)OC)CC4)c3n2)cc1 | 861 s
Fc1cc(F)cc(-c2nnc(Cc3nc(-c4ccc(Br)cc4)no3)o2)c1 | 1150 s
Cc1cccc(-c2nc(CN(c3ccccc3)S(=O)(=O)c3cccs3)c(C)o2)c1 | 1240 s
Cc1ccc(CN2C(=O)C3CCCN3C(=O)c3ccccc32)cc1 (stereo unspecified) | 797 s
CC(C)c1nnc(-c2coc(S(=O)(=O)N3CCC(N4CCCCC4)CC3)c2)o1 | 625 s
O=C(NC1(c2nc(-c3ccccc3)no2)CCCCC1)c1ccc2c(c1)OCO2 | 1120 s
COC(=O)c1ccccc1Nc1c(-c2ccccc2)nc2cnccn12 | 962 s
CCOC(=O)c1c(C)[nH]c(C(=O)N2CCC(C(C)C(=O)NCc3ccc(C)cc3)CC2)c1C (stereo unspecified) | 846 s
COc1cc2c(cc1OC)C(C(=O)NCc1ccc(C)o1)C1c3ccccc3CCN1C2=O (stereo unspecified) | 946 s
Cc1c(Cl)cccc1NC(=O)Cn1c(=O)n(-c2ccc(F)cc2)c(=O)c2c1cc(C)n2C | 880 s
